Measured values as given in patent US20160159808A1, “HETEROCYCLIC COMPOUND” (TAKEDA PHARMACEUTICAL COMPANY LIMITED, priority 2013, published 2016).

Columns and labels:
human PDE2A3 enzyme = target: T1, human PDE2A3 enzyme (Homo sapiens, UniProt O00408); test: PDE Enzyme Inhibitory Assay (SPA, [3H]cGMP substrate); type: biochemical; conditions: compound 1 μM; [3H]cGMP 77 nM; 60 min at room temperature; read-out: inhibitory rate (%) (1 μM)
T1 construct: Human PDE2A3 full-length gene was transduced into Sf9; His-tag; made in house; host or cells: Sf9 insect cells
Protocol: PDE Enzyme Inhibitory Assay Human PDE2A3 full-length gene was transduced into Sf9, and human PDE2A3 enzyme was purified by His-tag affinity column and gel filtration. The enzyme was stored at −70° C. until use. PDE activity was measured using a SPA (Scintillation Proximity Assay) (GE Healthcare). To evaluate the inhibitory activity of the compound, 10 μl of serial diluted compounds were reacted with 20 μl of PDE enzyme in assay buffer (50 mM HEPES-NaOH, 8.3 mM MgCl2, 1.7 mM EGTA, 0.1% BSA (pH 7.4)) for 30 min. at room temperature. Final concentration of DMSO in the reaction solution was 1 percent. Compounds were tested in duplicate in 96-well half-area plates (Corning) or 384-well OptiPlate (PerkinElmer). To start the reaction, 10 μl of substrate [^3H] cGMP (final concentration 77 nM, PerkinElmer) was added to a total volume of 40 μl. After reaction for 60 min at room temperature, 20 μl of 20 mg/mL yttrium SPA beads containing zinc sulfate was added to terminate the PDE reaction. After being settled for further 1 hour, the assay plates were counted in a scintillation counter (PerkinElmer) to allow calculation of inhibition rate. Inhibition rate was calculated on the basis of 0% control wells with enzyme and DMSO, and 100% control wells without enzyme.

Male C57BL/6 mice = test: Contextual fear conditioning test, MK-801-induced deficits; type: in vivo; conditions: 30 mg/kg p.o. 60 min before test, MK-801 (maleate) 0.08 mg/kg s.c. 30 min before test, n=10, FIG. 1
Protocol: Improvement effect on MK-801 ((5S,10R)-5-methyl-10,11-dihydro-5H-5,10-epiminodibenzo[a,d][7]annulene)-induced disorder in contextual fear conditioning test.
Male C57BL/6 mice were purchased from CLEA Japan, Inc. They were used for an experiment after a habituation period of at least one week after carrying them in the animal experimental facility. They were bred in the animal experimental facility with environment in which 12-hours light-dark cycle was performed, humidity and temperature were controlled, and free water drinking and feeding were allowed. Handling of experimental animals and experimental procedure of this study were approved by the Experimental Animal Ethics Committee of Takeda Pharmaceutical Company Limited.
A test compound was suspended in 0.5% methylcellulose solution at a dose of 30 mg/kg, and orally administered. MK-801 (maleate) (Sigma-Aldrich, St Louis, Mo.) was dissolved in saline at a dose of 0.08 mg/kg, and subcutaneously administered. All drugs were administered to mice at a dose of 10 mL/kg.
Contextual fear conditioning test is widely used as memory and learning test system depending on the hippocampus and amygdala. The improvement effect of test compounds on MK-801-induced deficits was investigated by contextual fear conditioning test. The test compounds and MK-801 (maleate) were administered 60 min and 30 min, respectively, before the test. 0.5% methylcellulose and saline were administered to the control groups 60 min and 30 min, respectively, before the test. 0.5% methylcellulose and MK-801 (maleate) were administered to the vehicle groups 60 min and 30 min, respectively, before the test. […] In the test session on day 2 of the experiment, mice were placed in the same chamber for 7 minutes, and freezing was measured during that period. The freezing was calculated as a percentage of freezing rates during measuring period with use of an automatic analysis software manufactured by the O'Hara & Co., Ltd. All data were shown as the mean+standard error (n=10). […]

T1 sequence (O00408 whole entry): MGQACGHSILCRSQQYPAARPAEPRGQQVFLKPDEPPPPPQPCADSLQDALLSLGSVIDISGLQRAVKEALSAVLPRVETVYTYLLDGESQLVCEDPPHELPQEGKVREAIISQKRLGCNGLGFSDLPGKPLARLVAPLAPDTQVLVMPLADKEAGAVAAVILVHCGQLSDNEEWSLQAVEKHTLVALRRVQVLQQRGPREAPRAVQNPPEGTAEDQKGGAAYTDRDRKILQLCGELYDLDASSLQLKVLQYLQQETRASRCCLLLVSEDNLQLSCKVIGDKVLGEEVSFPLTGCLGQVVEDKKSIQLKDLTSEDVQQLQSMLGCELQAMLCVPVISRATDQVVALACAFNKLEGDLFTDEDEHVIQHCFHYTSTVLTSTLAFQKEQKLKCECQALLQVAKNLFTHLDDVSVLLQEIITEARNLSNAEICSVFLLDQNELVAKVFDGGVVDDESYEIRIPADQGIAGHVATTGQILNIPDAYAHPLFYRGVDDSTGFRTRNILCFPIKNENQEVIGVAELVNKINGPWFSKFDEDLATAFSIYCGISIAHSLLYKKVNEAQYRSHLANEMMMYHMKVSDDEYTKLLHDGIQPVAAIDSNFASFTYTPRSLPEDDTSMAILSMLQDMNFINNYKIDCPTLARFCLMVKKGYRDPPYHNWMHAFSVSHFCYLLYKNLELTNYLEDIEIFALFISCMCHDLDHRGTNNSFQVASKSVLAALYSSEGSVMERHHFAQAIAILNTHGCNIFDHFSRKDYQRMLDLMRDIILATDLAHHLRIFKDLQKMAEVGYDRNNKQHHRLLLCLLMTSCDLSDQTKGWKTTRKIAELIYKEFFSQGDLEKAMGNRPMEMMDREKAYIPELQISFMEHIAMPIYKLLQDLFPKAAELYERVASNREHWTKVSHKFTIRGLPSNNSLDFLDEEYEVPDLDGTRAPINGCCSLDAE

inhibition at 1 µM (human PDE2A3 enzyme): 100%
Structure (SMILES): Cc1ccc(-c2ccn3ncc(C(=O)N[C@@H](c4ccc(OC(F)(F)F)cc4)C(C)(C)O)c3n2)cn1 [Example 69, N-((1S)-2-hydroxy-2-methyl-1-(4-(trifluoromethoxy)phenyl)propyl)-5-(6-methylpyridin-3-yl)pyrazolo[1,5-a]pyrimidine-3-carboxamide]
improvement effect on MK-801-induced deficits in contextual fear conditioning test (freezing) (Male C57BL/6 mice): improvement effect on MK-801-induced deficits was shown
